Test results published in PubChem BioAssay (NCI).
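GI50 marks 50% less growth. Definition used: TGI = concentration required for complete inhibition of growth.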

Key:
Test in all cases: NCI anticancer screen, dose series, 384-well format
MDA-MB-468 breast = system: MDA-MB-468 breast
OVCAR-4 ovarian = system: OVCAR-4 ovarian
SF-268 CNS = system: SF-268 CNS
HOP-62 NSCLC = system: HOP-62 NSCLC
NCI-H522 lung = system: NCI-H522 lung
SW-620 colon = system: SW-620 colon
OVCAR-3 ovarian = system: OVCAR-3 ovarian
RXF 393 renal = system: RXF 393 renal
SK-MEL-5 melanoma = system: SK-MEL-5 melanoma
MALME-3M melanoma = system: MALME-3M melanoma
SNB-19 CNS = system: SNB-19 CNS
NCI-H322M lung = system: NCI-H322M lung
RPMI-8226 leukemia = system: RPMI-8226 leukemia
DU-145 prostate = system: DU-145 prostate
HOP-92 NSCLC = system: HOP-92 NSCLC
SK-MEL-2 melanoma = system: SK-MEL-2 melanoma
CAKI-1 renal = system: CAKI-1 renal
UACC-62 melanoma = system: UACC-62 melanoma
BT-549 breast = system: BT-549 breast
NCI-H23 lung = system: NCI-H23 lung
MOLT-4 leukemia = system: MOLT-4 leukemia
NCI-H460 NSCLC = system: NCI-H460 NSCLC
K-562 leukemia = system: K-562 leukemia
KM12 colon = system: KM12 colon
786-0 renal = system: 786-0 renal
SF-539 CNS = system: SF-539 CNS
TK-10 renal = system: TK-10 renal
NCI-H226 lung = system: NCI-H226 lung
SK-MEL-28 melanoma = system: SK-MEL-28 melanoma
HCT-15 colon = system: HCT-15 colon
HS 578T breast = system: HS 578T breast
EKVX NSCLC = system: EKVX NSCLC
OVCAR-8 ovarian = system: OVCAR-8 ovarian
ACHN renal = system: ACHN renal
HT29 colon = system: HT29 colon
CCRF-CEM leukemia = system: CCRF-CEM leukemia
T-47D breast = system: T-47D breast
SNB-75 CNS = system: SNB-75 CNS
OVCAR-5 ovarian = system: OVCAR-5 ovarian
UO-31 renal = system: UO-31 renal
MCF7 breast = system: MCF7 breast
SK-OV-3 ovarian = system: SK-OV-3 ovarian
COLO 205 colon = system: COLO 205 colon
LOX IMVI melanoma = system: LOX IMVI melanoma
SN12C renal = system: SN12C renal
HCT-116 colon = system: HCT-116 colon
MDA-MB-231 breast = system: MDA-MB-231 breast
SF-295 CNS = system: SF-295 CNS
HCC-2998 colon = system: HCC-2998 colon
IGROV1 ovarian = system: IGROV1 ovarian
M14 melanoma = system: M14 melanoma
A498 renal = system: A498 renal
UACC-257 melanoma = system: UACC-257 melanoma
U251 glioblastoma = system: U251 glioblastoma
A549 NSCLC = system: A549 NSCLC
PC-3 prostate = system: PC-3 prostate
MDA-MB-435 melanoma = system: MDA-MB-435 melanoma
NCI/ADR-RES ovarian = system: NCI/ADR-RES ovarian

## Cc1cc(C(=O)N[C@@H](CCC(=O)O)C(=O)O)sc1CC[C@@H]1CNc2nc(N)[nH]c(=O)c2C1
MDA-MB-468 breast
  GI50: 19.4 nM
  TGI: 41.6 nM
OVCAR-4 ovarian
  GI50: 20.6 nM
  TGI: 43.5 nM
SF-268 CNS
  GI50: < 10 nM
  TGI: 20.8 nM
HOP-62 NSCLC
  GI50: 17.9 nM
  TGI: 37.8 nM
NCI-H522 lung
  GI50: 12.7 nM
  TGI: 28.5 nM
SW-620 colon
  GI50: 12.4 nM
  TGI: 30.1 nM
OVCAR-3 ovarian
  GI50: 19 nM
  TGI: 41.2 nM
RXF 393 renal
  GI50: < 10 nM
  TGI: 16.2 nM
SK-MEL-5 melanoma
  GI50: 30.5 nM
  TGI: 135 nM
MALME-3M melanoma
  GI50: 20 nM
  TGI: 37.2 nM
SNB-19 CNS
  GI50: < 10 nM
  TGI: 23.1 nM
NCI-H322M lung
  GI50: 20.2 nM
  TGI: 39.4 nM
RPMI-8226 leukemia
  GI50: 18.2 nM
  TGI: 36.3 nM
DU-145 prostate
  GI50: < 10 nM
  TGI: < 10 nM
HOP-92 NSCLC
  GI50: < 10 nM
  TGI: < 10 nM
SK-MEL-2 melanoma
  GI50: < 10 nM
  TGI: 14.7 nM
CAKI-1 renal
  GI50: < 10 nM
  TGI: < 10 nM
UACC-62 melanoma
  GI50: 21 nM
  TGI: 50.1 nM
BT-549 breast
  GI50: 18.3 nM
  TGI: 35 nM
NCI-H23 lung
  GI50: 39.2 nM
  TGI: 157 nM
MOLT-4 leukemia
  GI50: < 10 nM
  TGI: < 10 nM
NCI-H460 NSCLC
  GI50: < 10 nM
  TGI: 82.7 nM
K-562 leukemia
  GI50: < 10 nM
  TGI: < 10 nM
KM12 colon
  GI50: 28.5 nM
  TGI: 72.7 nM
786-0 renal
  GI50: < 10 nM
  TGI: < 10 nM
SF-539 CNS
  GI50: < 10 nM
  TGI: 21 nM
TK-10 renal
  GI50: < 10 nM
  TGI: < 10 nM
NCI-H226 lung
  GI50: 17.2 nM
  TGI: 39.4 nM
SK-MEL-28 melanoma
  GI50: 18.4 nM
  TGI: 35.9 nM
HCT-15 colon
  GI50: 25 nM
  TGI: 57.8 nM
HS 578T breast
  GI50: 15.8 nM
  TGI: 38.2 nM
EKVX NSCLC
  GI50: 11.4 nM
  TGI: 27.4 nM
OVCAR-8 ovarian
  GI50: 17 nM
  TGI: 34.6 nM
ACHN renal
  GI50: < 10 nM
  TGI: 22.5 nM
HT29 colon
  GI50: 17.4 nM
  TGI: 37.2 nM
CCRF-CEM leukemia
  GI50: < 10 nM
  TGI: < 10 nM
T-47D breast
  GI50: 21.7 nM
  TGI: 60.1 nM
SNB-75 CNS
  GI50: < 10 nM
  TGI: < 10 nM
OVCAR-5 ovarian
  GI50: 10.1 nM
  TGI: 23.8 nM
UO-31 renal
  GI50: < 10 nM
  TGI: 11.6 nM
MCF7 breast
  GI50: 15.7 nM
  TGI: 37 nM
SK-OV-3 ovarian
  GI50: < 10 nM
  TGI: 24.5 nM
COLO 205 colon
  GI50: 25.4 nM
  TGI: 56.1 nM
LOX IMVI melanoma
  GI50: 20 nM
  TGI: 40 nM
SN12C renal
  GI50: < 10 nM
  TGI: < 10 nM
HCT-116 colon
  GI50: < 10 nM
  TGI: 24 nM
MDA-MB-231 breast
  GI50: 345 nM
  TGI: 1200 nM
SF-295 CNS
  GI50: 19.4 nM
  TGI: 36.8 nM
HCC-2998 colon
  GI50: 33.2 nM
  TGI: 1030 nM
IGROV1 ovarian
  GI50: 19.9 nM
  TGI: 40 nM
M14 melanoma
  GI50: < 10 nM
  TGI: 20.1 nM
A498 renal
  GI50: < 10 nM
  TGI: 14.9 nM
UACC-257 melanoma
  GI50: 10.2 nM
  TGI: 27.7 nM
U251 glioblastoma
  GI50: < 10 nM
  TGI: < 10 nM
A549 NSCLC
  GI50: 21.5 nM
  TGI: 46 nM
PC-3 prostate
  GI50: < 10 nM
  TGI: < 10 nM
MDA-MB-435 melanoma
  GI50: 18.5 nM
  TGI: 36.4 nM
NCI/ADR-RES ovarian
  GI50: 20.1 nM
  TGI: 37.3 nM
